Molecular target: Neuronal acetylcholine receptor; alpha4/beta2 (Rattus norvegicus, UniProt P09483+P12390)
Assay: Nicotinic acetylcholine receptor binding activity was determined by ability to displace [3H]- (-) cytisine binding from whole rat brain synaptic membranes.

Neuronal acetylcholine receptor; alpha4/beta2, sequence (P09483 whole entry): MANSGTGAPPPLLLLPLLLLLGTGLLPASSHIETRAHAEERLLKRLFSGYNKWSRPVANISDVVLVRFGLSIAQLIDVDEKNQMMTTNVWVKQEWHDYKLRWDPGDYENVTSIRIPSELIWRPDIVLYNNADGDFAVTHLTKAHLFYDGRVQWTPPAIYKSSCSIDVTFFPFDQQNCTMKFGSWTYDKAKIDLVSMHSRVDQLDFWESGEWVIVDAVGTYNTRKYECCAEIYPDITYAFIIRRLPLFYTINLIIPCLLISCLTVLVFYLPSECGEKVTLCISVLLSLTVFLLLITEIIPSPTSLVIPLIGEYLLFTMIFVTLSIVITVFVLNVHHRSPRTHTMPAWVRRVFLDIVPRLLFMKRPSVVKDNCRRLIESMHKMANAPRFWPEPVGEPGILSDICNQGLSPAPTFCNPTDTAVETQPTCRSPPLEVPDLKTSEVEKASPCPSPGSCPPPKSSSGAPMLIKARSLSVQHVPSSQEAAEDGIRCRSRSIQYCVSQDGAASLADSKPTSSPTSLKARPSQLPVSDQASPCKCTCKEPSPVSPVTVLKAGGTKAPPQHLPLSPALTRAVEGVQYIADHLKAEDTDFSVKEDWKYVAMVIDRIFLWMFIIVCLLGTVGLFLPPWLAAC
Neuronal acetylcholine receptor; alpha4/beta2, sequence (P12390 whole entry): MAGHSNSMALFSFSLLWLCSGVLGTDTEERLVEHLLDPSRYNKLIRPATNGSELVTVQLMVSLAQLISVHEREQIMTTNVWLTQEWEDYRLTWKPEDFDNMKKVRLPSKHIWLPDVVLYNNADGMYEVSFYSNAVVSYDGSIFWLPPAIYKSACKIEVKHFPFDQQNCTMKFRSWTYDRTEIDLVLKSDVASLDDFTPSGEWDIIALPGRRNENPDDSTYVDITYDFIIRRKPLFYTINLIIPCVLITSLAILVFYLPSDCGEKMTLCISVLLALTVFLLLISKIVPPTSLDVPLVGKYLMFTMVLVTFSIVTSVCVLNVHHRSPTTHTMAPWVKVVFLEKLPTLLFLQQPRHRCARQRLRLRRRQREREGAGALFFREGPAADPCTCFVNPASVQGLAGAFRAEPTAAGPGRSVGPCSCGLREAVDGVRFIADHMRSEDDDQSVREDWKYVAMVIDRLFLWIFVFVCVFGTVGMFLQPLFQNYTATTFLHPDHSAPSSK

SMILES | Ki [nM]
CN1CCC(Oc2ccc(Cl)nn2)C1 (configuration not stated) | 46.4
c1cncc(OCCN2CCCC2)c1 | 240
CN1CCC[C@H]1COc1cnccn1 | 16.3
c1ncc(OC[C@@H]2CCN2)cn1 | 0.13
CN1CC[C@@H](Oc2cccnc2)C1 | 4.44
CN1CCC(OCc2cccnc2)C1 (configuration not stated) | 11900
CN1CCC[C@@H]1COc1ccc(Cl)nn1 | 85.3
CN1CC[C@H](Oc2cccnc2)C1 | 2.67
CN1CCC(Oc2ccccn2)C1 (configuration not stated) | > 10000
CN1CCC(Oc2cnccn2)C1 (configuration not stated) | 359
Clc1ccc(OC[C@@H]2CCN2)nn1 | 15.4
Clc1ccc(OCCN2CCCC2)nn1 | 1300
CN1CC[C@H]1COc1ccc(Cl)nn1 | 63.8
CN1CCC[C@H]1COc1cccnn1 | 42.1
c1ccc(OCCN2CCCC2)nc1 | 160
CN1CCC[C@H]1COc1ccc(Cl)nn1 | 29
CN1CCC[C@H]1COc1ncccn1 | 1220
CN1CCC[C@@H]1COc1cnccn1 | 406
CN1CC[C@H]1COc1cncnc1 | 6.54
c1cnc(OCCN2CCCC2)cn1 | 560
CN1CC[C@H]1COc1cccnn1 | 28.2
CN1CCC[C@H]1COc1ccccn1 | 495
